Assay results reported in patent publication US20260193268A1, “TRICYCLIC PI3Ka INHIBITOR, PREPARATION METHOD THEREFOR, AND PHARMACEUTICAL USE THEREOF” (WIGEN BIOMEDICINE TECHNOLOGY (SHANGHAI) CO., LTD., priority 2022, published 2026).
Read-outs that look alike come from different tables or passages of the source.

Experiments:
[1] = tested on: MCF-7 cells (with PI3Kα E545K mutation); assay: In vitro inhibition of MCF-7 cell proliferation (CellTiter-Lumi); assay type: cell-based; details: Homo sapiens, MCF7, 144 h
Method in brief: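 MCF-7 (PI3Kα E545K) seeded at 2000 cells/well; serially diluted compounds added next day and exposed for 144 h. Cellular ATP read by CellTiter-Lumi luminescence; IC50 for growth inhibition calculated.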

[2] = tested on: HCC1954 cells (with PI3Kα H1047R mutation); assay: In vitro inhibition of HCC1954 cell proliferation (CellTiter-Lumi); assay type: cell-based; details: Homo sapiens, HCC1954, 144 h, HCC1954 cells, 144 h, CellTiter-Lumi
Method: Assay for In Vitro Inhibition of HCC1954 Cell Proliferation by Compounds of the Present Disclosure
The growth of the cells was evaluated, and the IC50 for the inhibition of cell growth by the compounds was calculated.

[3] = class symbols, read-out: Inhibitory activity against MCF-7 cells (IC50), class symbols
[4] = class symbols, read-out: Inhibitory activity against HCC1954 cells (IC50), class symbols
[5] = numeric values, read-out: Inhibitory activity against MCF-7 cells (IC50)
[6] = numeric values, read-out: Inhibitory activity against HCC1954 cells (IC50)

**Q.** For C=CC(=O)Nc1ccc(C2CN(c3ccc(-c4ccc5c(c4)-c4nc(N6C(=O)OC[C@H]6C(F)F)cn4CCO5)cc3)C2)cc1 [Compound 181], which IC50 [1, 3] is on record?
**A.** < 50 nM

**Q.** And the IC50 [2, 4]?
**A.** 50 to 100 nM

**Q.** What does the source list for C=CC(=O)Nc1cc(N2CC(N3CCN(c4ccc5c(c4)-c4nc(N6C(=O)OC[C@H]6C(F)F)cn4CCO5)CC3)C2)n(C)n1 [Compound 135]?
**A.** IC50 [1, 5]: 1.5 nM; IC50 [2, 6]: 16 nM

**Q.** With CNC1(C=C(C#N)C(=O)Nc2ccc(N3CC(N4CCN(c5ccc6c(c5)-c5nc(N7C(=O)OC[C@H]7C(F)F)cn5CCO6)CC4)C3)cc2)CCC1 [Compound 392] as the molecule, how does the IC50 [1, 3] read?
**A.** < 50 nM

**Q.** And the IC50 [2, 4]?
**A.** < 50 nM

**Q.** How did the IC50 [1, 5] turn out when C=CC(=O)Nc1ccc(N2CCN(c3ccc4c(c3)-c3nc(N5C(=O)OC[C@H]5C(F)F)cn3CCO4)CC2)cc1 [Compound 174] was run?
**A.** 26 nM

**Q.** And the IC50 [2, 6]?
**A.** 166 nM

**Q.** N#CC(=CC1(NC2COC2)CCC1)C(=O)Nc1ccc(N2CC(N3CCN(c4ccc5c(c4)-c4nc(N6C(=O)OC[C@H]6C(F)F)cn4CCO5)CC3)C2)cc1 [Compound 388] was tested. Which IC50 [1, 3] did it give?
**A.** < 50 nM

**Q.** And the IC50 [2, 4]?
**A.** < 50 nM

**Q.** What does the source list for CC1(C=C(C#N)C(=O)Nc2ccc(N3CC(N4CCN(c5ccc6c(c5)-c5nc(N7C(=O)OC[C@H]7C(F)F)cn5CCO6)CC4)C3)cc2)CCC1 [Compound 390]?
**A.** IC50 [1, 3]: < 50 nM; IC50 [2, 4]: < 50 nM

**Q.** With C=CC(=O)N1CCc2nc(N3CC(N4CCN(c5ccc6c(c5)-c5nc(N7C(=O)OC[C@H]7C(F)F)cn5CCO6)CC4)C3)ccc21 [Compound 169] as the molecule, how does the IC50 [1, 5] read?
**A.** 0.1 nM

**Q.** And the IC50 [2, 6]?
**A.** 1 nM

**Q.** CC(C)(C=C(C#N)C(=O)Nc1ccc(N2CC(N3CCN(c4ccc5c(c4)-c4nc(N6C(=O)OC[C@H]6C(F)F)cn4CCO5)CC3)C2)c(Cl)c1)NC1(C)COC1 [Compound 385] was tested. Which IC50 [1, 3] did it give?
**A.** < 50 nM

**Q.** What about the IC50 [2, 4] of the same molecule?
**A.** < 50 nM

**Q.** For C=CC(=O)N1CCn2nc(N3CC(N4CCN(c5ccc6c(c5)-c5nc(N7C(=O)OC[C@H]7C(F)F)cn5CCO6)CC4)C3)cc2C1 [Compound 164], which IC50 [1, 5] is on record?
**A.** 3 nM

**Q.** And the IC50 [2, 6]?
**A.** 53 nM

**Q.** Which IC50 [1, 3] does the source give for C=CC(=O)Nc1ccc(N2CCC(C/C=C/c3ccc4c(c3)-c3nc(N5C(=O)OCC5C(F)F)cn3CCO4)CC2)cc1 (centres unmarked) [Compound 210] here?
**A.** < 50 nM

**Q.** And the IC50 [2, 4]?
**A.** 50 to 100 nM

**Q.** How did the IC50 [1, 3] turn out when CC(C)(C)C=C(C#N)C(=O)Nc1ccc(N2CC(N3CCN(c4cc5c(cc4F)OCCn4cc(N6C(=O)OC[C@H]6C(F)F)nc4-5)CC3)C2)cc1 [Compound 315] was run?
**A.** < 50 nM

**Q.** And the IC50 [2, 4]?
**A.** < 50 nM

**Q.** Which IC50 [1, 3] does the source give for CNC(C)(C)C=C(C#N)C(=O)Nc1ncc(N2CC(N3CCN(c4ccc5c(c4)-c4nc(N6C(=O)OC[C@H]6C(F)F)cn4CCO5)CC3)C2)cn1 [Compound 300] here?
**A.** < 50 nM

**Q.** And the IC50 [2, 4]?
**A.** < 50 nM

**Q.** How did the IC50 [1, 3] turn out when CC(C)(C=C(C#N)C(=O)Nc1ccc(N2CC(N3CCN(c4ccc5c(c4)-c4nc(N6C(=O)OC[C@H]6C(F)F)cn4CCO5)CC3)C2)cc1)NCOP(=O)(OCOC(=O)C(C)(C)C)OCOC(=O)C(C)(C)C [Compound 333] was run?
**A.** < 50 nM

**Q.** What about the IC50 [2, 4] of the same molecule?
**A.** < 50 nM

**Q.** CC(C)(N)C=C(C#N)C(=O)Nc1ccc(N2CC(N3CCN(c4ccc5c(c4)-c4nc(N6C(=O)OC[C@H]6C(F)F)cn4CCO5)CC3)C2)cn1 [Compound 291] was tested. Which IC50 [1, 3] did it give?
**A.** < 50 nM

**Q.** What about the IC50 [2, 4] of the same molecule?
**A.** < 50 nM

**Q.** Which results are given for CNC1(C=C(C#N)C(=O)Nc2ccc(N3CC(N4CCN(c5ccc6c(c5)-c5nc(N7C(=O)OC[C@H]7C(F)F)cn5CCO6)CC4)C3)c(F)c2)CC1 [Compound 237]?
**A.** IC50 [1, 3]: < 50 nM; IC50 [2, 4]: < 50 nM

**Q.** Which IC50 [1, 3] does the source give for COC(C)(C)C=C(C#N)C(=O)Nc1ccc(N2CC(N3CCN(c4ccc5c(c4)-c4nc(N6C(=O)OC[C@H]6C(F)F)cn4CCO5)CC3)C2)c(F)c1 [Compound 231] here?
**A.** < 50 nM

**Q.** And the IC50 [2, 4]?
**A.** < 50 nM

**Q.** With C=CC(=O)Nc1ccc(CN2CC(N3CCN(c4ccc5c(c4)-c4nc(N6C(=O)OC[C@H]6C(F)F)cn4CCO5)CC3)C2)cc1 [Compound 39] as the molecule, how does the IC50 [1, 5] read?
**A.** 11 nM

**Q.** And the IC50 [2, 6]?
**A.** 68 nM

**Q.** What does the source list for C=CC(=O)Nc1ccc(N2CC(N3CCN(c4ccc5c(c4)-c4nc(N6C(=O)OC[C@H]6C(F)F)cn4CCO5)CC3)C2)c(F)c1 [Compound 123]?
**A.** IC50 [1, 5]: 0.9 nM; IC50 [2, 6]: 5.3 nM

**Q.** What does the source list for CNC(C)(C)C=C(C#N)C(=O)Nc1cc(N2CC(N3CCN(c4ccc5c(c4)-c4nc(N6C(=O)OC[C@H]6C(F)F)cn4CCO5)CC3)C2)n(C)n1 [Compound 219]?
**A.** IC50 [1, 3]: < 50 nM; IC50 [2, 4]: < 50 nM
